Measured values as given in patent EP3501511A1, “MEANS FOR PREVENTING AND TREATING BRAIN METASTASIS” (Fundación Centro Nacional De Investigaciones Oncológicas …, priority 2017, dated 2019).

Experiments:
[1] = system: Mouse astrocytes; experiment: Astrosphere assay; type: cell-based
Description: Mouse astrocytes were treated with conditioned media from BrM cell lines or with recombinant mouse protein including Egf (0.01 µg/ml, R&D Systems, ref. 2028-EG- 200), Mif (0.1 µg/ml, R&D Systems, ref. 1978-MF-0257CF) and Tgfα (0.1 µg/ml, R&D Systems, ref. 239-A-100) during 96 hours. After this treatment 10^4 astrocytes were seeded in low attachment plates and incubated for seven days in the presence of the same media to evaluate the ability to form astrospheres. Conditioned media from BrM cell lines were obtained after 3 days incubation of cancer cells in DMEM supplemented with 0.25 % FBS, 2 mM L-Glutamine, 100 IU/ml penicillin/streptomycin and […] amphotericin B. After being collected, the media was filtered and added to astrocytes. Conditioned media from astrospheres was collected, filtered and added to activated CD8 cells (Fig. 7P) or wild type brain slices (Fig. 7T).

[2] = system: 482N1; experiment: cKO-Stat3 brain slice cultures with established metastases treated with 4OH-Tamoxifen (BLI); type: cell-based, mouse; conditions: 4OH-Tamoxifen 1 µM; n≥ 4 brain slices per condition, P=0.013
Excerpt: (§1) To test the functional contribution of pStat3+ RA in brain metastasis we generated GFAP-Cre/ERT2;Stat3loxP/loxP (cKO-Stat3) mice in which syngeneic brain metastatic (BrM) cells, labeled with Luciferase and Gfp (Green fluorescent protein), were intracardiacally inoculated. We used two BrM models including lung adenocarcinoma model (482N1) and melanoma model (B16/F10-BrM). These syngeneic models have gained brain tropism while retaining an aggressive extracranial metastatic potential (Valiente, M. et al. Cell 156, 1002-1016 (2014) and also as disclosed herein). […] We confirmed Stat3 depletion from RA under these experimental conditions (Fig.2). […] In order to analyze the effect of Stat3 deletion in RA once brain metastases have developed, and given the limited time available in vivo before mice reach the humane endpoint, we cultured ex vivo cKO-Stat3 brain slices containing 2 weeks old lesions grown in mice (Fig. 4A). […]
(§2) Treatments to brain slices were given once during the experiment (4OH-Tmx, 1 µM, Sigma-Aldrich, ref. H7904; WP1066, 10 µM, Merck, ref. 573097; Doxycycline, 1 µg/ml, Sigma-Aldrich, ref. D9891; silibinin, 100 µM, Sigma-Aldrich, ref. S0417) by adding them to the media. […] Analysis of the knockdown level in H2030-BrM (Fig. 4F) was analyzed in a homogenate containing the mouse brain tissue and human cancer cells. […]

[3] = system: B16/F10-BrM; experiment: as above; type: cell-based, mouse; conditions: 4OH-Tamoxifen 1 µM; n≥ 8 brain slices per condition, P=0.012
Excerpt: as §1, §2

[4] = system: B16/F10-BrM; experiment: Tamoxifen-induced Stat3 depletion in reactive astrocytes of cKO-Stat3 mice inoculated with B16/F10-BrM; type: in vivo
Excerpt: To test the functional contribution of pStat3+ RA in brain metastasis we generated GFAP-Cre/ERT2;Stat3loxP/loxP (cKO-Stat3) mice in which syngeneic brain metastatic (BrM) cells, labeled with Luciferase and Gfp (Green fluorescent protein), were intracardiacally inoculated. We used two BrM models including lung adenocarcinoma model (482N1) and melanoma model (B16/F10-BrM). […] In order to analyze the effect of Stat3 deletion in RA once brain metastases have developed, and given the limited time available in vivo before mice reach the humane endpoint, we cultured ex vivo cKO-Stat3 brain slices containing 2 weeks old lesions grown in mice (Fig. 4A).
All animal experiments were performed in accordance with a protocol approved by the CNIO, Instituto de Salud Carlos III and Comunidad de Madrid Institutional Animal Care and Use Committee. Athymic nu/nu (Harlan), and C57BL/6 mice 4-6 weeks of age were used. cKO-Stat3 was generated by breeding GFAP-CRE/ERT2 (B6.Cg- Tg(GFAP-cre/ERT2)505Fmv/J, Jackson Labs, ref. 012849) with Stat3loxP/loxP16.
Brain metastatic derivative of a syngeneic B16/F10 model (B16/F10-BrM) was established according to a previous protocol (Bos, P. D. et al. Nature 459, 1005-1009 (2009); Nguyen, D. X. et al. Cell 138, 51-62 (2009)). Brain colonization assays were performed injecting 100 µl of PBS into the left ventricle containing 100,000 cancer cells. Brain colonization was analyzed in vivo and ex vivo by bioluminescence imaging. Anesthetized mice (Isofluorane) were injected retro-orbitally with D-Luciferin (150 mg/kg) and imaged with an IVIS Spectrum Xenogen machine (Caliper Life Sciences). Bioluminescence analysis was performed using Living Image software, version 3. […] Silibinin in the formula of Legasil® was administered by oral gavage daily the same day cancer cells were inoculated (200mg/kg) and until mice reached the endpoint of the experiment.

[5] = Tamoxifen treated cKO-Stat3 mice, n=7 metastases

Q: Which results are given for `CC/C(=C(\c1ccc(O)cc1)c1ccc(OCCN(C)C)cc1)c1ccccc1` [4OH-Tamoxifen]?
A: formation of astrospheres ([1]; cKO-Stat3 derived astrocytes induced by the cytokine cocktail, 4OH-Tamoxifen 1µM): unable to generate astrospheres; growth of established metastases scored with BLI [2]: impaired the growth of established metastases; growth of established metastases scored with BLI [3]: impaired the growth of established metastases

Q: Which “metastases of Score 0 (no pStat3 signal) in the surrounding microenvironment” value ([4]; Tamoxifen treated cKO-Stat3 mice) does the source give for `CC/C(=C(\c1ccccc1)c1ccc(OCCN(C)C)cc1)c1ccccc1` [Tamoxifen] here?
A: The value was 66.7%.

Q: What about the “metastases of Score 1 (low pStat3 signal) in the surrounding microenvironment” value [4, 5] of the same compound?
A: Its value is 22.2%.

Q: And the “metastases of Score 2 (high pStat3 signal) in the surrounding microenvironment” value [4, 5]?
A: The value was 11.1%.

Q: What about the “CD74+/Iba1+ cells infiltrating metastasis” value ([4]; cKO-Stat3 brains treated with tamoxifen) of the same compound?
A: Its value is “less CD74+/lba1+ cells infiltrating metastasis”.

Q: For `C[C@H](NC(=O)/C(C#N)=C/c1cccc(Br)n1)c1ccccc1` [WP1066], which formation of astrospheres ([1]; primary astrocytes in the presence of the cytokine cocktail (Egf, Tgfα, Mif)) is on record?
A: Its formation of astrospheres is “impairs the formation of astrospheres”.
